Measurements as given in ChEMBL document CHEMBL1201862, “PubChem BioAssay data set” (2004).
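Tested at 5 concentrations; 48 h exposure; 96-well plates; endpoints linearly interpolated, else capped at highest concentration. Here, GI50 denotes the concentration required for 50% inhibition of growth.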 Activity calls are given as the source filed them. Cut-off read from the data, not from the text of the source: active = GI50 up to about 1.1 µM and inactive = higher.

Legend:
Assay in all cases: NCI anticancer screen, dose series, 48 h
SF-268 = tested on: SF-268
MOLT-4 = tested on: MOLT-4
A549 = tested on: A549
ACHN = tested on: ACHN
HL-60 = tested on: HL-60
NCI-H23 = tested on: NCI-H23
CCRF-CEM = tested on: CCRF-CEM
SN12C = tested on: SN12C
SF-295 = tested on: SF-295
HOP-92 = tested on: HOP-92
UO-31 = tested on: UO-31
786-0 = tested on: 786-0
NCI-H226 = tested on: NCI-H226
COLO 205 = tested on: COLO 205
OVCAR-5 = tested on: OVCAR-5
SK-MEL-28 = tested on: SK-MEL-28

Row | SMILES | GI50 (SF-268) | GI50 (MOLT-4) | GI50 (A549) | GI50 (ACHN) | GI50 (HL-60) | GI50 (NCI-H23) | GI50 (CCRF-CEM) | GI50 (SN12C) | GI50 (SF-295) | GI50 (HOP-92) | GI50 (UO-31) | GI50 (786-0) | GI50 (NCI-H226) | GI50 (COLO 205) | GI50 (OVCAR-5) | GI50 (SK-MEL-28)
1 | c1cc(-c2cn3c(n2)SCC3)ccn1 | > 100 µM (inactive) | > 100 µM (inactive) | > 100 µM (inactive) | > 100 µM (inactive) | > 38.1 µM (inactive) | > 100 µM (inactive) | > 61.4 µM (inactive) | > 100 µM (inactive) | > 100 µM (inactive) | > 100 µM (inactive) | > 100 µM (inactive) | 20.5 µM (inactive) | > 100 µM (inactive) | > 57.8 µM (inactive) | > 100 µM (inactive) | –
2 | Cc1nc(-n2nc(-c3ccccc3)cc2-c2ccccc2)sc1C(=O)CC(=O)C(=O)Nc1ccc(Cl)c(Cl)c1 | 48.5 µM (inactive) | 59.6 µM (inactive) | > 100 µM (inactive) | 25.1 µM (inactive) | > 100 µM (inactive) | 43.1 µM (inactive) | 41.3 µM (inactive) | 91.6 µM (inactive) | 79.3 µM (inactive) | – | 77.1 µM (inactive) | > 100 µM (inactive) | > 100 µM (inactive) | 47.3 µM (inactive) | 53.8 µM (inactive) | –
3 | COc1ccccc1NC(=O)C1=C(C)NC(C)=C(C(=O)Nc2ccccc2OC)C1c1ccc(C(C)C)cc1 | > 100 µM (inactive) | 9.18 µM (inactive) | 40.1 µM (inactive) | 65.9 µM (inactive) | – | > 100 µM (inactive) | – | > 100 µM (inactive) | > 100 µM (inactive) | 82.4 µM (inactive) | 29 µM (inactive) | > 100 µM (inactive) | > 100 µM (inactive) | > 100 µM (inactive) | > 100 µM (inactive) | 80.5 µM (inactive)
4 | CC[C@@H]1NC(C(=O)OC)Cc2c1[nH]c1ccccc21 (stereo not given in full) | – | > 100 µM (inactive) | > 100 µM (inactive) | > 100 µM (inactive) | > 100 µM (inactive) | > 100 µM (inactive) | > 100 µM (inactive) | > 100 µM (inactive) | > 100 µM (inactive) | > 100 µM (inactive) | > 100 µM (inactive) | > 100 µM (inactive) | > 100 µM (inactive) | > 100 µM (inactive) | > 100 µM (inactive) | > 100 µM (inactive)
5 | Cc1[nH]c2ccccc2c1C1Cc2ccccc2N1C(=O)C#Cc1ccc([N+](=O)[O-])cc1 (stereo not given) | > 100 µM (inactive) | 8.87 µM (inactive) | > 100 µM (inactive) | > 100 µM (inactive) | > 100 µM (inactive) | > 100 µM (inactive) | 19.2 µM (inactive) | > 100 µM (inactive) | > 100 µM (inactive) | – | 51.9 µM (inactive) | > 100 µM (inactive) | > 100 µM (inactive) | – | > 100 µM (inactive) | > 100 µM (inactive)
6 | CN(CCO)/N=N/c1n[nH]cc1C(N)=O | > 100 µM (inactive) | > 100 µM (inactive) | > 100 µM (inactive) | – | > 100 µM (inactive) | > 100 µM (inactive) | > 100 µM (inactive) | > 100 µM (inactive) | > 100 µM (inactive) | > 100 µM (inactive) | > 100 µM (inactive) | – | > 100 µM (inactive) | > 100 µM (inactive) | > 100 µM (inactive) | > 100 µM (inactive)
7 | C=CCONC(=O)c1ccc(Cl)cc1 | > 100 µM (inactive) | > 100 µM (inactive) | > 100 µM (inactive) | > 100 µM (inactive) | > 100 µM (inactive) | > 100 µM (inactive) | > 100 µM (inactive) | > 100 µM (inactive) | > 100 µM (inactive) | > 100 µM (inactive) | > 100 µM (inactive) | > 100 µM (inactive) | – | > 100 µM (inactive) | > 100 µM (inactive) | > 100 µM (inactive)
8 | O=C1C(c2ccccc2)=C(c2ccccc2)C(c2ccc(CCCCCCc3ccc(C4=C(c5ccccc5)C(=O)C(c5ccccc5)=C4c4ccccc4)cc3)cc2)=C1c1ccccc1 | > 100 µM (inactive) | > 100 µM (inactive) | > 100 µM (inactive) | > 100 µM (inactive) | > 100 µM (inactive) | > 100 µM (inactive) | > 100 µM (inactive) | > 100 µM (inactive) | > 100 µM (inactive) | > 100 µM (inactive) | > 100 µM (inactive) | > 100 µM (inactive) | – | > 100 µM (inactive) | > 100 µM (inactive) | > 100 µM (inactive)
9 | O=[N+]([O-])c1cccc2c1[nH]c1c(-c3ccccc3)nccc12 | 4.04 µM (inactive) | 1.71 µM (inactive) | 2.67 µM (inactive) | – | 1.63 µM (inactive) | 2.07 µM (inactive) | 1.68 µM (inactive) | 2.7 µM (inactive) | 3.08 µM (inactive) | 0.622 µM (active) | 1.11 µM (active) | – | 1.58 µM (inactive) | 2.02 µM (inactive) | 3.9 µM (inactive) | 3.84 µM (inactive)
10 | CCN(c1ccc(Br)cc1)c1c(Br)c(=O)nc2ccccn12 | > 100 µM (inactive) | > 100 µM (inactive) | > 100 µM (inactive) | > 100 µM (inactive) | – | > 100 µM (inactive) | > 100 µM (inactive) | > 100 µM (inactive) | – | 57.3 µM (inactive) | 35.7 µM (inactive) | > 100 µM (inactive) | > 100 µM (inactive) | > 100 µM (inactive) | > 100 µM (inactive) | > 100 µM (inactive)
11 | CC(C)N(C(=O)C12C3C4C5(C#N)C3C1(C#N)C5C42I)C(C)C (stereo not given) | > 100 µM (inactive) | 40.8 µM (inactive) | > 59 µM (inactive) | > 100 µM (inactive) | > 41 µM (inactive) | > 100 µM (inactive) | > 39.9 µM (inactive) | > 100 µM (inactive) | > 100 µM (inactive) | > 100 µM (inactive) | > 100 µM (inactive) | > 100 µM (inactive) | > 100 µM (inactive) | > 45.4 µM (inactive) | > 100 µM (inactive) | > 100 µM (inactive)
12 | CC(/C=C/C(=O)c1sc(-n2nc(-c3ccccc3)cc2-c2ccccc2)nc1C)=C\c1ccccc1 | 72.9 µM (inactive) | 9.06 µM (inactive) | 38.8 µM (inactive) | 25.6 µM (inactive) | 36.3 µM (inactive) | 8.3 µM (inactive) | 27.7 µM (inactive) | 40.3 µM (inactive) | > 10 µM (inactive) | 8.69 µM (inactive) | 24 µM (inactive) | 96.4 µM (inactive) | > 10 µM (inactive) | > 10 µM (inactive) | > 10 µM (inactive) | > 10 µM (inactive)
13 | O=C(CC1OC(O)C(Cl)=C1Cl)c1cccnc1 (stereo not given) | > 68.4 µM (inactive) | > 100 µM (inactive) | > 100 µM (inactive) | > 31.6 µM (inactive) | > 100 µM (inactive) | > 100 µM (inactive) | > 100 µM (inactive) | > 100 µM (inactive) | > 100 µM (inactive) | > 100 µM (inactive) | > 100 µM (inactive) | > 41.5 µM (inactive) | > 100 µM (inactive) | > 100 µM (inactive) | > 100 µM (inactive) | > 42.7 µM (inactive)
14 | CC(=O)OCCOCNC(=S)N/N=C/c1ccc([N+](=O)[O-])o1 | 29.5 µM (inactive) | – | 63.5 µM (inactive) | 60.5 µM (inactive) | 11.6 µM (inactive) | 26.7 µM (inactive) | 23 µM (inactive) | 74.5 µM (inactive) | 40.6 µM (inactive) | – | > 100 µM (inactive) | > 100 µM (inactive) | 98.4 µM (inactive) | 15 µM (inactive) | > 100 µM (inactive) | 98.4 µM (inactive)
15 | COC(=O)c1ccc(OCc2ccc3nc(OC)c(OC)nc3c2)cc1 | > 100 µM (inactive) | > 10 µM (inactive) | > 100 µM (inactive) | > 100 µM (inactive) | > 100 µM (inactive) | > 100 µM (inactive) | > 100 µM (inactive) | > 100 µM (inactive) | 82.6 µM (inactive) | – | > 100 µM (inactive) | > 100 µM (inactive) | > 100 µM (inactive) | > 100 µM (inactive) | > 100 µM (inactive) | > 100 µM (inactive)
16 | OCC#CCNCl | > 100 µM (inactive) | > 100 µM (inactive) | > 100 µM (inactive) | – | > 100 µM (inactive) | > 100 µM (inactive) | > 100 µM (inactive) | > 100 µM (inactive) | > 100 µM (inactive) | > 100 µM (inactive) | > 100 µM (inactive) | – | > 100 µM (inactive) | > 100 µM (inactive) | > 100 µM (inactive) | > 100 µM (inactive)
17 | O=C1c2cc3c(cc2[C@@H]2NC4CCCC14O2)OCO3 (stereo not given in full) | > 100 µM (inactive) | > 100 µM (inactive) | > 100 µM (inactive) | > 100 µM (inactive) | > 100 µM (inactive) | > 100 µM (inactive) | > 100 µM (inactive) | > 100 µM (inactive) | > 100 µM (inactive) | > 100 µM (inactive) | > 100 µM (inactive) | > 100 µM (inactive) | > 100 µM (inactive) | – | > 100 µM (inactive) | > 100 µM (inactive)
18 | CS(=O)(=O)N(N(CCCl)S(=O)(=O)c1ccccc1)S(C)(=O)=O | 21.3 µM (inactive) | > 100 µM (inactive) | > 100 µM (inactive) | > 100 µM (inactive) | > 100 µM (inactive) | > 100 µM (inactive) | > 100 µM (inactive) | > 100 µM (inactive) | 88.9 µM (inactive) | > 100 µM (inactive) | 76.7 µM (inactive) | 44.7 µM (inactive) | > 100 µM (inactive) | > 100 µM (inactive) | – | > 100 µM (inactive)
